Legend:
kidney fibrosis = test: Unilateral ureteral ligation (UUO) kidney fibrosis model; type: in vivo, rat; details: male SD rats, RZL-012 15 mg s.c. into fat at Day 14 and Day 42, sacrifice 8 weeks after UUO, vs Vehicle
Method: • Animals: Male SD Rats, 250 g. • Induction of kidney fibrosis: Overnight fasted rats were anesthetized (a mixture of Ketamine 20 mg/kg and Xylazin 2 mg/kg IP). The abdominal cavity was exposed via a midline incision up to 0.5-1 cm before penis about 3 cm along. Then the bladder was lifted out and epididymal fat was remoted. The left ureter was ligated at two points with 4-0 sutures. The wound was closed in layers with the same sutures. Then animals were returned to the cages. […] The tissue sections were stained with Masson-Trichrome which enable a distinction between fibrotic tissue (staining collagen fiber in Blue) and normal viable tissue (Purple-Red) (see FIG. 6C). • Quantification of kidney fibrosis: In order to quantify, in an unbiased way, the fibrotic response in RZL-treated vs. non-treated rats, the dimensions of the fibrotic layer surrounding aortic blood vessel, were measured. All aortic vessels in each affected kidney were analyzed in the following way: The vessel wall consists of two components, the usual Muscular layer and an outer layer, excessively rich in collagen, in these kidneys, hereby defined as “Adventitia” (FIG. 6C). The net width of the adventitia and that of the Muscular layer were calculated as follows: […]

scar formation in pigs = test: Remote effect of local s.c. fat injection on scar formation in pigs (RZL-012 vs Kythera/Kybella); type: in vivo; details: pig; for Collagen fibers in scar-tissue (H & E histology): compared with Kythera scar tissue
Source text: The objective of this study is to evaluate the remote effect on local injection of RZL-012 of the invention (5-(3,6-dibromo-9H-carbazol-9-yl)-N,N,N-trimethylpentan-1-aminium) into the s.c. fat, on scar formation in pigs, compared with Kybella (an injectable formulation of Deoxycholate developed by Kythera) an agent that bluntly destroys s.c. fat.
• 1. Kythera preparation (according to published formulation): an aqueous solution of 5% Phosphatidylcholine, 4.75% Sodium deoxycholate and 0.9% Benzyl Alcohol. • 2. RZL-012 of the invention (5-(3,6-dibromo-9H-carbazol-9-yl)-N,N,N-trimethylpentan-1-aminium) of the invention preparation: 5.0% (w/v) RZL-012 in the below indicated formulation: […]
Eighty kilogram pigs were injected with either Kythera or RZL-012 of the invention preparation, into the s.c. fat (1 cm depth, 27 G needle), at 10 sites, divided into two clusters, on the right flank only. The injection at each site was of a volume of 0.5 ml. In addition, a cut through the s.c. fat was made at the midline of each pig at the right and at the left flank.
Animals were housed in the animal unit of Biotechfarm, Israel and fed on a diet weighing 2% of body weight (B.W.) per day divided to two meals, based on the last effective weekly body weighing.
After 2 months from the day of treatment, the animals were sacrificed; the scars on both sides were photographed before and after making a cross section in the middle of each scar. Thereafter, tissue samples of all cross-sections were formalin-fixed and processed for H & E histology staining.

Question: With C[N+](C)(C)CCCCCn1c2ccc(Br)cc2c2cc(Br)ccc21 [RZL-012, 5-(3,6-dibromo-9H-carbazol-9-yl)-N,N,N-trimethylpentan-1-aminium] as the compound, how does the “Kidney fibrosis (Adventitia/Muscular layers ratio, Masson-Trichrome)” value (kidney fibrosis) read?
Answer: significant inhibition of kidney fibrosis

Question: What about the “Macroscopic view of the scar at the left, non-treated side” value (scar formation in pigs; 2 months after s.c. fat injection on right flank only, external view, compared with Kythera treated pig) of the same compound?
Answer: much finer

Question: What about the “Scar tissue seen after a cross section through the scar (macroscopic)” value (scar formation in pigs; 2 months sacrifice, cross-section through the middle of the scar, non-treated side (L)) of the same compound?
Answer: no apparent scare tissue was observed

Question: And the “Difference in the scar tissue width” value (scar formation in pigs; 2 months, H & E histology, careful measurement, RZL-012 vs Kythera treated pig)?
Answer: 4-5 times

Question: What about the “Collagen fibers in scar-tissue (H & E histology)” value (scar formation in pigs; 2 months, X20 objective magnification) of the same compound?
Answer: less collagen fibers

Question: And the “Collagen fibers in scar-tissue (H & E histology)” value (scar formation in pigs; 2 months, X40 objective magnification)?
Answer: less collagen fibers

Question: What about the “Width of fibrotic tissue (scar histology, H & E)” value (scar formation in pigs; 2 months, both sides, X10 objective magnification, RZL-012 vs Kythera treated pig) of the same compound?
Answer: much thinner

Source: patent US12097179B2, “Carbazole derivatives for the treatment of fibrotic diseases and related symptoms, and conditions thereof” (Raziel Therapeutics Ltd., priority 2015, dated 2024)
